Measurements as given in patent publication US20200325177A1, “METHODS OF MAKING STREPTOGRAMIN COMPOSITIONS AND THE USE THEREOF” (THE REGENTS OF THE UNIVERSITY OF CALIFORNIA, priority 2017, published 2020).
Values after ≈ are worked out from the molar mass of the structure shown. Where two headings read alike, the source gives them in different places.

Key:
Type in all cases: cell-based
[1] = test system: S. aureus Linezolid-resistant; cfr; test: MIC, Gram-positive bacteria: S. aureus Linezolid-resistant; cfr; settings: Staphylococcus aureus, column 9, read-out: Minimal Inhibitory Concentration (MIC) S. aureus Linezolid-resistant
E. faecalis = test: MIC, Gram-positive bacteria: E. faecalis; settings: Enterococcus faecalis, column 1, read-out: Minimal Inhibitory Concentration (MIC) E. faecalis
S. pneumoniae = test: MIC, Gram-positive bacteria: S. pneumoniae; settings: Streptococcus pneumoniae, column 10, read-out: Minimal Inhibitory Concentration (MIC) S. pneumoniae
Gram-Negative Organisms = test: microbe, parasite or virus in culture
[2] = test system: K. pneumoniae multidrug-resistant; test: MIC, Gram-negative bacteria: K. pneumoniae multidrug-resistant; settings: Klebsiella pneumoniae, read-out: Minimal Inhibitory Concentration (MIC) K. pneumoniae multidrug-resistant
E. faecium VRE; vanA = test: MIC, Gram-positive bacteria: E. faecium VRE; vanA; settings: Enterococcus faecium, column 3, read-out: Minimal Inhibitory Concentration (MIC) E. faecium VRE
S. aureus = test: MIC, Gram-positive bacteria: S. aureus (strains not named); settings: Staphylococcus aureus, read-out: Minimal Inhibitory Concentration (MIC) S. aureus
P. aeruginosa ATCC 27853 = test: MIC, Gram-negative bacteria: P. aeruginosa ATCC 27853; settings: Pseudomonas aeruginosa, ATCC27853, read-out: Minimal Inhibitory Concentration (MIC) P. aeruginosa ATCC 27853
[3] = test system: P. aeruginosa MDR clinical isolate; test: MIC, Gram-negative bacteria: P. aeruginosa MDR clinical isolate; settings: Pseudomonas aeruginosa, read-out: Minimal Inhibitory Concentration (MIC) P. aeruginosa MDR clinical isolate
H. influenzae ATCC 49247 = test: MIC, Gram-negative bacteria: H. influenzae ATCC 49247; settings: Haemophilus influenzae, ATCC49247, read-out: Minimal Inhibitory Concentration (MIC) H. influenzae ATCC 49247
[4] = test system: S. aureus Vat A streptogramin; test: MIC, Gram-positive bacteria: S. aureus Vat A streptogramin; settings: Staphylococcus aureus; Gram-positive; column 5; read-out: Minimal Inhibitory Concentration (MIC) S. aureus Vat A streptogramin
E. faecium ATCC 35667 = test: MIC, Gram-positive bacteria: E. faecium ATCC 35667; settings: Enterococcus faecium, ATCC35667, column 2, read-out: Minimal Inhibitory Concentration (MIC) E. faecium ATCC 35667
[5] = Acinetobacter baumannii, ATCC19606, read-out: Minimal Inhibitory Concentration (MIC), A. baumannii ATCC 19606
[6] = Escherichia coli, ATCC25922, read-out: Minimal Inhibitory Concentration (MIC), E. coli ATCC 25922
[7] = Escherichia coli, read-out: Minimal Inhibitory Concentration (MIC), E. coli BAS2006, OMP C, OMP F
[8] = Escherichia coli, read-out: Minimal Inhibitory Concentration (MIC), E. coli olC efflux defective
[9] = Escherichia coli, read-out: Minimal Inhibitory Concentration (MIC), E. coli permeability mutant BAS1314, IMP4213ZAB::TN10
[10] = Escherichia coli, read-out: Minimal Inhibitory Concentration (MIC), E. coli ΔompC768, KanR insert
[11] = Klebsiella pneumoniae, ATCC43816, read-out: Minimal Inhibitory Concentration (MIC), K. pneumoniae ATCC 43816
[12] = first unnamed S. aureus column (c4)
[13] = fourth unnamed S. aureus column (c8)
[14] = second unnamed S. aureus column (c6)
[15] = third unnamed S. aureus column (c7)

Row | SMILES | MIC [1] | MIC (E. faecalis) | MIC (S. pneumoniae) | MIC (Gram-Negative Organisms; [5]) | MIC (Gram-Negative Organisms; [6]) | MIC (Gram-Negative Organisms; [7]) | MIC (Gram-Negative Organisms; [8]) | MIC (Gram-Negative Organisms; [9]) | MIC (Gram-Negative Organisms; [11]) | MIC [2] | MIC (E. faecium VRE; vanA) | MIC (S. aureus; [12]) | MIC (S. aureus; [13]) | MIC (S. aureus; [14]) | MIC (S. aureus; [15]) | MIC (P. aeruginosa ATCC 27853) | MIC [3] | MIC (H. influenzae ATCC 49247) | MIC [4] | MIC (E. faecium ATCC 35667) | also measured
1 | CC1=C\[C@@H](O)CC(=O)Cc2nc(co2)C(=O)N[C@H](CCCCN)C(=O)O[C@H](C(C)C)[C@H](C)/C=C/C(=O)NC\C=C\1 [SA0202094] | > 64 µg/mL | > 64 µg/mL | > 64 µg/mL | > 64 µg/mL | > 64 µg/mL | > 64 µg/mL | > 64 µg/mL | 32 µg/mL (≈ 57.3 µM) | > 64 µg/mL | > 64 µg/mL | > 64 µg/mL | > 64 µg/mL | > 64 µg/mL | > 64 µg/mL | > 64 µg/mL | > 64 µg/mL | > 64 µg/mL | > 64 µg/mL | > 64 µg/mL | > 64 µg/mL | MIC (Gram-Negative Organisms; [10]): > 64 µg/mL
2 | CC1=C\[C@@H](O)CC(=O)Cc2nc(co2)C(=O)N2CCC[C@@H]2C(=O)O[C@H]([C@H](C)CO)[C@H](C)/C=C/C(=O)NC\C=C\1 [SA0110170] | > 64 µg/mL | > 64 µg/mL | 64 µg/mL (≈ 118 µM) | > 64 µg/mL | > 64 µg/mL | > 64 µg/mL | 32 µg/mL (≈ 58.9 µM) | 32 µg/mL (≈ 58.9 µM) | > 64 µg/mL | > 64 µg/mL | > 64 µg/mL | > 64 µg/mL | > 64 µg/mL | > 64 µg/mL | > 64 µg/mL | > 64 µg/mL | > 64 µg/mL | 32 µg/mL (≈ 58.9 µM) | > 64 µg/mL | > 64 µg/mL | MIC (Gram-Negative Organisms; [10]): > 64 µg/mL
3 | CC1=C\[C@@H](O)CC(=O)Cc2nc(co2)C(=O)N2CCC[C@@H]2C(=O)O[C@H](C(C)(C)C)[C@H](C)/C=C/C(=O)NC\C=C\1 [SA0306004] | > 64 µg/mL | > 64 µg/mL | 64 µg/mL (≈ 118 µM) | > 64 µg/mL | > 64 µg/mL | 4 µg/mL (≈ 7.38 µM) | 4 µg/mL (≈ 7.38 µM) | 4 µg/mL (≈ 7.38 µM) | > 64 µg/mL | > 64 µg/mL | > 64 µg/mL | 32 µg/mL (≈ 59.1 µM) | 32 µg/mL (≈ 59.1 µM) | 64 µg/mL (≈ 118 µM) | 64 µg/mL (≈ 118 µM) | > 64 µg/mL | > 64 µg/mL | > 64 µg/mL | > 64 µg/mL | 32 µg/mL (≈ 59.1 µM) | 
4 | CC1=C\[C@@H](O)CC(=O)Cc2nc(co2)C(=O)N2CCC[C@@H]2C(=O)O[C@H]([C@@H](C)COC(=O)Nc2ccc3ccccc3n2)[C@H](C)/C=C/C(=O)NC\C=C\1 [SA0110117] | > 64 µg/mL | > 64 µg/mL | 4 µg/mL (≈ 5.6 µM) | > 64 µg/mL | > 64 µg/mL | 8 µg/mL (≈ 11.2 µM) | 2 µg/mL (≈ 2.8 µM) | 4 µg/mL (≈ 5.6 µM) | > 64 µg/mL | > 64 µg/mL | 32 µg/mL (≈ 44.8 µM) | 16 µg/mL (≈ 22.4 µM) | 16 µg/mL (≈ 22.4 µM) | 16 µg/mL (≈ 22.4 µM) | 32 µg/mL (≈ 44.8 µM) | > 64 µg/mL | > 64 µg/mL | > 64 µg/mL | > 64 µg/mL | 16 µg/mL (≈ 22.4 µM) | 
5 | CC1=C\[C@@H](O)CC(=O)Cc2nc(co2)C(=O)N2CCC[C@@H]2C(=O)O[C@H]([C@H](C)COC(=O)Nc2csc(C)n2)[C@H](C)/C=C/C(=O)NC\C=C\1 [SA0110214] | > 64 µg/mL | > 64 µg/mL | 32 µg/mL (≈ 46.8 µM) | > 64 µg/mL | > 64 µg/mL | 64 µg/mL (≈ 93.6 µM) | 8 µg/mL (≈ 11.7 µM) | 8 µg/mL (≈ 11.7 µM) | > 64 µg/mL | > 64 µg/mL | 64 µg/mL (≈ 93.6 µM) | 64 µg/mL (≈ 93.6 µM) | 64 µg/mL (≈ 93.6 µM) | 64 µg/mL (≈ 93.6 µM) | > 64 µg/mL | > 64 µg/mL | > 64 µg/mL | 16 µg/mL (≈ 23.4 µM) | > 64 µg/mL | 32 µg/mL (≈ 46.8 µM) | MIC (Gram-Negative Organisms; [10]): > 64 µg/mL
6 | CC1=C\[C@@H](O)CC(=O)Cc2nc(co2)C(=O)N2CCC[C@@H]2C(=O)O[C@H]([C@@H](C)CN2CCOCC2)[C@H](C)/C=C/C(=O)NC\C=C\1 [SA0110161] | > 64 µg/mL | > 64 µg/mL | > 64 µg/mL | > 64 µg/mL | > 64 µg/mL | > 64 µg/mL | > 64 µg/mL | > 64 µg/mL | > 64 µg/mL | > 64 µg/mL | > 64 µg/mL | > 64 µg/mL | > 64 µg/mL | > 64 µg/mL | > 64 µg/mL | > 64 µg/mL | > 64 µg/mL | > 64 µg/mL | > 64 µg/mL | > 64 µg/mL | MIC (Gram-Negative Organisms; [10]): > 64 µg/mL
